Values quoted from earlier work, collected in patent US12453729B2, “Pharmaceutical formulations” (AstraZeneca AB, priority 2020, dated 2025).

How the values were obtained:
ERα receptor [1] = molecular target: T1, ERα receptor (Homo sapiens, UniProt P03372); conditions: patient samples; 500 mg monthly dose
T1 sequence (P03372 1-595): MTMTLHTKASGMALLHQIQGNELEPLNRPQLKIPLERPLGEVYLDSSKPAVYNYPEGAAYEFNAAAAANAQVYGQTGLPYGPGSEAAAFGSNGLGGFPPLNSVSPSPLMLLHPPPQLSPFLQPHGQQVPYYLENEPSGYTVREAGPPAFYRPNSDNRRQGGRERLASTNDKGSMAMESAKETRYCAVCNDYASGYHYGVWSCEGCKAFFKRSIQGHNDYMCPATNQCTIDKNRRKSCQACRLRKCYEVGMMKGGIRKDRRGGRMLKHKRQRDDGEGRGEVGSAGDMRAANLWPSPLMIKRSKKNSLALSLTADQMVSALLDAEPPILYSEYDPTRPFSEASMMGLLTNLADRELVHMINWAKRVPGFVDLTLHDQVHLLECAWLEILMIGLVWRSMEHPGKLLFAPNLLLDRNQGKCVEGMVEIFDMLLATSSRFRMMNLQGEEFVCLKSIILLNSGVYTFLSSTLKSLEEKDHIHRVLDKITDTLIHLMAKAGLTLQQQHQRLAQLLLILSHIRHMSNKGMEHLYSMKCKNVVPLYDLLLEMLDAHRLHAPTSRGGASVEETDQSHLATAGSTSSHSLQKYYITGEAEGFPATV

ERα receptor [2] = molecular target: T1, ERα receptor; conditions: in vitro breast cancer cell line experiments

For C[C@]12CC[C@@H]3c4ccc(O)cc4C[C@@H](CCCCCCCCC[S+]([O-])CCCC(F)(F)C(F)(F)F)[C@H]3[C@@H]1CC[C@@H]2O (some centres unmarked) [Fulvestrant], the “turnover of the receptor” value (ERα receptor [1]) is listed as “less than 50%” and the “down-regulation of the receptor” value (ERα receptor [2]) is listed as “complete down-regulation”.
